Results taken from patent publication US20080171792A1, “Use of highly concentrated formulations of 4-phenylbutyrate for treatment of certain disorders” (priority 2006, published 2008).

Experiments:
[1] = high dosage of about 20 g a day; cited from earlier work
[2] = Storage of the concentrated aqueous solution at low temperature (freezing / precipitation); assay type: physicochemical
Description: Therefore, due to likely micelle formation of sodium 4-phenylbutyrate (which we term the self-associated polymeric form), the high concentration of about 500 mg/mL can be achieved in solution. […] This novel invention thus provides a dosage form better able to help the patients presently administered with a high volume dosage of sodium 4-phenylbutyrate. This invention is not intended to be limited by this discussion of micellar phases, or the presence or absence of other high concentration phases (such as sponge or L3, worm-like micelles, sheets and other laminar phases) that may be formed depending on the particular processing conditions and/or materials used. In the follow description the term “solution” is used without regard to whether a micellar phase is present. […] The mixture was cooled to 25° C. and 0.5 g of sodium benzoate was added and mixed well. […] Further cooling of this solution to about −4° C. caused precipitation.

[3] = Solubility / achievable concentration of sodium 4-phenylbutyrate in water; assay type: physicochemical; conditions: supersaturated solution in aqueous medium
Description: This art-reported solubility is believed to pertain to the maximum solubility of the monomeric form of sodium 4-phenylbutyrate in water. As described in more detail below, a process has been identified of preparing a highly concentrated solution of sodium 4-phenylbutyrate, having a concentration 500 mg/mL in water by dissolving 5 g of sodium 4-phenylbutyrate in about 3.5 mL water to yield a solution volume of about 10 mL. The temperature can be room temperature (25° C.) or an elevated temperature, preferably in the range of up to about 80° C. The solution can be made at a higher temperature and then cooled to room temperature without precipitating resulting.

[4] = test system: histone deacetylase (HDAC); conditions: cited from earlier work

For `O=C([O-])CCCc1ccccc1.[Na+]` [sodium 4-phenylbutyrate], the tolerability [1] is given as “well tolerated”, the “freezing of the solution” value ([2]; 600 mg/mL solution at 0° C.) is given as “does not freeze” and the “temperature at which precipitation is observed on further cooling” value ([2]; about 500 mg/mL solution) is given as −40 °C. For the same molecule, the “freezing or precipitation upon storage” value ([2]; about 500 mg/mL solution, 0° C. for two days) was “did not freeze or precipitate out”, the “maximum drug concentration achieved in the formulation” value [3] was “about 700 mg/mL” and the “inhibition of histone deacetylase (HDAC)” value [4] was “efficient inhibitor”.
